Reference: US6562791B1, “Glucopyranoside, process for isolation thereof, pharmaceutical composition containing same and use thereof” (Council of Scientific and Industrial Research, priority 2002, dated 2003)

System: 18 hour fasted Wistar rats
Test: hypoglycaemic activity in 18 hour fasted Wistar rats
Assay type: in vivo
Settings: for mean fall (blood glucose): compound at 15 mg/kg p.o., chlorpropamide positive control, dose not given
Description: The compound was evaluated for hypoglycaemic activity in 18 hour fasted Wistar rats. […] The mean fall recorded was 24 mg/100 ml blood, from an initial mean of 91 to mean of 67 mg/100 ml blood.

Row | Compound | hypoglycaemic effect (15 mg/kg p.o.) | mean blood level after treatment (15 mg/kg p.o., after treatment) | mean fall (blood glucose) | initial mean blood level (initial value of the treated group)
1 | OC[C@H]1O[C@@H](c2c(O)ccc3cc(Cc4ccc(O)cc4)oc23)[C@H](O)[C@@H](O)[C@@H]1O [formula 1, 6-hydroxy-2-p-hydroxybenzylbenzofuran-7-C-β-D-glucopyranoside] | hypoglycaemic effect was recorded in all the treated rats | 67 mg/100 ml blood | 24 mg/100 ml blood | 91 mg/100 ml blood
2 | CCCNC(=O)NS(=O)(=O)c1ccc(Cl)cc1 [chlorpropamide, reference compound] | – | – | 18 mg/100 ml blood | –
